Source: PubChem BioAssay AID2060885 (Molecular Pharmacology Branch, DTP, NCI, 2025)

Tested on: NCI-H23 complex spheroids with HUVEC/MSC, viability
Test: Anticancer human tumor NCI-H23 cell line growth inhibition [RAS];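 note: spheroids exposed to compound for 7 days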;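 for viability, T/C: 100% = DMSO vehicle control viability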
Settings: for IC50: curve of first compound; for viability, T/C: stronger effect = lower value; active = viability on the fitted dose curve at most 10% of control; inactive = the rest
Summary of the method: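 Tumour cells grown as complex spheroids with HUVEC endothelial cells and mesenchymal stem cells, treated with RAS pathway inhibitor combinations. Each agent spans half-log steps from near clinical Cmax, or 10 microM where Cmax is unknown.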

[1] = second compound 0.000949 µM, first compound 0.0316 µM
[2] = second compound 0.000949 µM, first compound 0.1 µM
[3] = second compound 0.000949 µM, first compound 0.316 µM
[4] = second compound 0.000949 µM, first compound 1 µM
[5] = second compound 0.000949 µM, first compound 3.16 µM
[6] = second compound 0.000949 µM, first compound 10 µM
[7] = second compound 0.003 µM, first compound 0.0316 µM
[8] = second compound 0.003 µM, first compound 0.1 µM
[9] = second compound 0.003 µM, first compound 0.316 µM
[10] = second compound 0.003 µM, first compound 1 µM
[11] = second compound 0.003 µM, first compound 3.16 µM
[12] = second compound 0.003 µM, first compound 10 µM
[13] = second compound 0.00949 µM, first compound 0.0316 µM
[14] = second compound 0.00949 µM, first compound 0.1 µM
[15] = second compound 0.00949 µM, first compound 0.316 µM
[16] = second compound 0.00949 µM, first compound 1 µM
[17] = second compound 0.00949 µM, first compound 3.16 µM
[18] = second compound 0.00949 µM, first compound 10 µM
[19] = second compound 0.03 µM, first compound 0.0316 µM
[20] = second compound 0.03 µM, first compound 0.1 µM
[21] = second compound 0.03 µM, first compound 0.316 µM
[22] = second compound 0.03 µM, first compound 1 µM
[23] = second compound 0.03 µM, first compound 3.16 µM
[24] = second compound 0.03 µM, first compound 10 µM
[25] = second compound 0.0949 µM, first compound 0.0316 µM
[26] = second compound 0.0949 µM, first compound 0.1 µM
[27] = second compound 0.0949 µM, first compound 0.316 µM
[28] = second compound 0.0949 µM, first compound 1 µM
[29] = second compound 0.0949 µM, first compound 3.16 µM
[30] = second compound 0.0949 µM, first compound 10 µM
[31] = second compound 0.3 µM, first compound 0.0316 µM
[32] = second compound 0.3 µM, first compound 0.1 µM
[33] = second compound 0.3 µM, first compound 0.316 µM
[34] = second compound 0.3 µM, first compound 1 µM
[35] = second compound 0.3 µM, first compound 3.16 µM
[36] = second compound 0.3 µM, first compound 10 µM

Cc1nc(N2CCC3(CC2)COC(C)C3N)c(CO)nc1Sc1ccnc(N)c1Cl (stereo unspecified) + CCn1c(-c2cc(N3CCN(C)CC3)cnc2C(C)OC)c2c3cc(ccc31)-c1csc(n1)CC(NC(=O)C1CC1C)C(=O)N1CCCC(N1)C(=O)OCC(C)(C)C2
< 31.6 nM: IC50 (second compound 0.000949 µM) | IC50 (second compound 0.003 µM) | IC50 (second compound 0.00949 µM) | IC50 (second compound 0.03 µM) | IC50 (second compound 0.0949 µM) | IC50 (second compound 0.3 µM)
active: viability, T/C [18] 7.55% | viability, T/C [24] 7.44% | viability, T/C [29] 7.63% | viability, T/C [30] 7.62% | viability, T/C [35] 7.11% | viability, T/C [36] 5.57%
inactive: viability, T/C [1] 40.2% | viability, T/C [2] 33.2% | viability, T/C [3] 22.9% | viability, T/C [4] 26.2% | viability, T/C [5] 18.7% | viability, T/C [6] 13.7% | viability, T/C [7] 35% | viability, T/C [8] 25.4% | viability, T/C [9] 21.2% | viability, T/C [10] 21% | viability, T/C [11] 15% | viability, T/C [12] 10.5% | viability, T/C [13] 30.2% | viability, T/C [14] 19.9% | viability, T/C [15] 20% | viability, T/C [16] 17.1% | viability, T/C [17] 11.5% | viability, T/C [19] 24.4% | viability, T/C [20] 22.5% | viability, T/C [21] 18% | viability, T/C [22] 14.1% | viability, T/C [23] 8.53% | viability, T/C [25] 17.3% | viability, T/C [26] 17.8% | viability, T/C [27] 14.6% | viability, T/C [28] 10.8% | viability, T/C [31] 17.4% | viability, T/C [32] 17.8% | viability, T/C [33] 12.3% | viability, T/C [34] 9.93%

NC1c2ccccc2OC12CCN(c1cnc3c(N4CCCc5ncccc54)n[nH]c3n1)CC2 (stereo unspecified) + CCn1c(-c2cc(N3CCN(C)CC3)cnc2C(C)OC)c2c3cc(ccc31)-c1csc(n1)CC(NC(=O)C1CC1C)C(=O)N1CCCC(N1)C(=O)OCC(C)(C)C2
< 31.6 nM: IC50 (second compound 0.000949 µM) | IC50 (second compound 0.003 µM) | IC50 (second compound 0.00949 µM) | IC50 (second compound 0.03 µM) | IC50 (second compound 0.0949 µM) | IC50 (second compound 0.3 µM)
inactive: viability, T/C [1] 29% | viability, T/C [2] 22.1% | viability, T/C [3] 15.2% | viability, T/C [4] 15.1% | viability, T/C [5] 10.4% | viability, T/C [7] 23.4% | viability, T/C [8] 15.7% | viability, T/C [9] 12.3% | viability, T/C [13] 19.4% | viability, T/C [14] 13.9% | viability, T/C [19] 15.7% | viability, T/C [20] 12.8% | viability, T/C [25] 12.9% | viability, T/C [31] 11%
active: viability, T/C [6] 7.21% | viability, T/C [10] 8.99% | viability, T/C [11] 8.38% | viability, T/C [12] 5.79% | viability, T/C [15] 9.85% | viability, T/C [16] 7.3% | viability, T/C [17] 5.1% | viability, T/C [18] 5.27% | viability, T/C [21] 8.98% | viability, T/C [22] 5.94% | viability, T/C [23] 4.97% | viability, T/C [24] 5.95% | viability, T/C [26] 9.83% | viability, T/C [27] 6.34% | viability, T/C [28] 5.78% | viability, T/C [29] 4.29% | viability, T/C [30] 6.19% | viability, T/C [32] 7.93% | viability, T/C [33] 6.42% | viability, T/C [34] 4.7% | viability, T/C [35] 4.58% | viability, T/C [36] 5.26%

Nc1ccn(C2OC(CO)C(O)C2(F)F)c(=O)n1 (stereo unspecified) + CCn1c(-c2cc(N3CCN(C)CC3)cnc2C(C)OC)c2c3cc(ccc31)-c1csc(n1)CC(NC(=O)C1CC1C)C(=O)N1CCCC(N1)C(=O)OCC(C)(C)C2
inactive: viability, T/C (second compound 0.000949 µM, first compound 0.00316 µM) 16.9% | viability, T/C (second compound 0.003 µM, first compound 0.00316 µM) 12.9% | viability, T/C (second compound 0.00949 µM, first compound 0.00316 µM) 12.6% | viability, T/C (second compound 0.03 µM, first compound 0.00316 µM) 12% | viability, T/C (second compound 0.0949 µM, first compound 0.00316 µM) 12.2% | viability, T/C (second compound 0.3 µM, first compound 0.00316 µM) 15.5%
< 3.16 nM: IC50 (second compound 0.000949 µM) | IC50 (second compound 0.003 µM) | IC50 (second compound 0.00949 µM) | IC50 (second compound 0.03 µM) | IC50 (second compound 0.0949 µM) | IC50 (second compound 0.3 µM)
active: viability, T/C (second compound 0.000949 µM, first compound 0.01 µM) 2.1% | viability, T/C [1] 2.03% | viability, T/C [2] 1.87% | viability, T/C [3] 1.82% | viability, T/C [4] 1.3% | viability, T/C (second compound 0.003 µM, first compound 0.01 µM) 1.96% | viability, T/C [7] 1.42% | viability, T/C [8] 1.52% | viability, T/C [9] 2.04% | viability, T/C [10] 1.24% | viability, T/C (second compound 0.00949 µM, first compound 0.01 µM) 1.87% | viability, T/C [13] 2.05% | viability, T/C [14] 1.74% | viability, T/C [15] 2.15% | viability, T/C [16] 2.22% | viability, T/C (second compound 0.03 µM, first compound 0.01 µM) 2.82% | viability, T/C [19] 2.27% | viability, T/C [20] 2.33% | viability, T/C [21] 1.56% | viability, T/C [22] 1.99% | viability, T/C (second compound 0.0949 µM, first compound 0.01 µM) 3.4% | viability, T/C [25] 3.37% | viability, T/C [26] 2.4% | viability, T/C [27] 2.14% | viability, T/C [28] 2.59% | viability, T/C (second compound 0.3 µM, first compound 0.01 µM) 5.87% | viability, T/C [31] 3.63% | viability, T/C [32] 3.14% | viability, T/C [33] 2.91% | viability, T/C [34] 3.48%
